Experimental data as given in article PMC8985489 (Alzheimer's & Dementia : Translational Research & Clinical …, 2022).

What was measured:
Aβ1-40 [1] = target: T1, Aβ1-40 (Homo sapiens, UniProt P05067); assay: Circular dichroism; format: biochemical
Aβ1-40 [2] = target: T1, Aβ1-40; assay: Thioflavin T; format: biochemical
[3] = tested on: SK-N-AS neuroblastoma cells; assay: Aβ production in mammalian cells; format: cell-based, human; details: SK-N-AS incubated with 1 μg/ml, within 3 h
Human Recombinant IDO-1 = Human Recombinant IDO-1 (Homo sapiens, UniProt P14902); assay: HR-IDO-1 enzymatic inhibition assay; format: biochemical
Human Recombinant IDO-1, sequence (P14902 whole entry): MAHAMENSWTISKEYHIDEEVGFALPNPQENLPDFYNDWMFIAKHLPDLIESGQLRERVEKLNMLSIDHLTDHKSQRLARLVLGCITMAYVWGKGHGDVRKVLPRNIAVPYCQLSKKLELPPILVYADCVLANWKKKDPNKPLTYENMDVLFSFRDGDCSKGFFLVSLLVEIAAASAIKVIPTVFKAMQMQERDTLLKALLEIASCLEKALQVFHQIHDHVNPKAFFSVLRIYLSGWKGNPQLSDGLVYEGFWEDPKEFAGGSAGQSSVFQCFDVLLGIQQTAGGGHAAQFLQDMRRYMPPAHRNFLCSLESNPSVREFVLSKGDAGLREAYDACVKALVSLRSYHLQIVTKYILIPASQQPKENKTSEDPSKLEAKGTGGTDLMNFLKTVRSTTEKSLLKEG

biotinylated Aβ1-42 = biotinylated Aβ1-42 (Homo sapiens, UniProt P05067); assay: Aβ anti-oligomerization assay; format: biochemical
biotinylated Aβ1-42, sequence (P05067 672-713): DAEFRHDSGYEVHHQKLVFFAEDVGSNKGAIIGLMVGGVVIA

[4] = target: INF-γ-induced IDO-1 activity (Homo sapiens, UniProt P14902); assay: INF-γ-induced IDO-1 activity; format: cell-based
INF-γ-induced IDO-1 activity, sequence (P14902 whole entry): as the sequence (P14902 whole entry) above

IDO-1 = details: cited from earlier work
[5] = tested on: IL-1β production and release from microglia; assay: IL-1β production and release from microglia; format: cell-based; details: at 50 and 100 μM

T1 sequence (P05067 672-711 limits assumed): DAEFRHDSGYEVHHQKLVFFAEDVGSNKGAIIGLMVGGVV

Row | Aβ anti-aggregant activity in CD assay (Aβ1-40 [1]) | Aβ anti-aggregant activity in ThT assay (Aβ1-40 [2]) | Compound | other results
1 | exhibited Aβ anti‐aggregant activities | exhibited Aβ anti‐aggregant activities | COc1cc(/C=C/C(=O)O)cc(OC)c1O [sinapate] | –
2 | exhibited Aβ anti‐aggregant activities | exhibited Aβ anti‐aggregant activities | Oc1ccc(/C=C/c2cc(O)cc(O)c2)cc1 [resveratrol] | –
3 | exhibited Aβ anti‐aggregant activities | exhibited Aβ anti‐aggregant activities | O=C(O)c1ccccc1O [salicylate] | –
4 | exhibited Aβ anti‐aggregant activities | exhibited Aβ anti‐aggregant activities | COc1cc(/C=C/C(=O)O)ccc1O [ferulate] | IDO-1 enzymatic activity (IDO-1): shown to inhibit IDO‐1 enzymatic activity
5 | exhibited Aβ anti‐aggregant activities | exhibited Aβ anti‐aggregant activities | tannate | –

The remaining lines, values behind:

Row | Compound | Aβ anti-aggregant activity in CD assay (Aβ1-40 [1]) | Aβ anti-aggregant activity in ThT assay (Aβ1-40 [2]) | other results
6 | lipoteichoic acid [LTA] | – | – | Aβ concentrations in the cell lysate [3]: 800 pg/mL
7 | O=C(O)/C=C/c1ccc(O)cc1 [4‐coumarate] | exhibited Aβ anti‐aggregant activities | exhibited Aβ anti‐aggregant activities | –
8 | O=C(O)/C=C/c1ccc(O)c(O)c1 [caffeiate] | exhibited Aβ anti‐aggregant activities | exhibited Aβ anti‐aggregant activities | –
9 | COc1ccc2[nH]cc(/C=C/c3ccc(O)cc3)c2c1 [4b, (E)‐4‐(2‐[5‐methoxy‐1H‐indol‐3‐yl]vinyl)phenol] | – | – | IC50 (Human Recombinant IDO-1): 2.8 µM; IC50 (biotinylated Aβ1-42): 6.5 µM; IC50 [4]: 10.8 µM
10 | lipopolysaccharide [LPS] | – | – | Aβ concentrations in the cell lysate [3]: 800 pg/mL
11 | N[C@@H](Cc1c[nH]c2ccccc12)C(=O)O [tryptophan] | – | – | activity in initial screen against Aβ aggregation (biotinylated Aβ1-42; biotinylated Aβ1-42 anti-oligomerization screen): inactive; activity in initial screen against Aβ aggregation (Aβ1-40 [2]; kinetic ThT Aβ1-40 anti-aggregation screen): inactive
12 | NCCc1c[nH]c2ccc(O)cc12 [5‐hydroxytryptamine] | – | – | IL-1β production and release from microglia [5]: modulated
